# From ChEMBL document CHEMBL1201862, “PubChem BioAssay data set” (2004)
# Several values for one entry are separate records, joined by “and”; a condition that tells them apart may be missing. Identical values can stand only once.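 Five compound concentrations were applied to cells in 96-well plates for 48 hours; endpoints were derived by simple linear interpolation of the resulting dose-response curve. GI50: concentration for 50% inhibition of growth.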 Activity calls are given as the source filed them. Rule as the data show it: active = GI50 up to about 1.1 µM and inactive = higher. Residues, ends and D or L forms follow the SMILES beside them. *: point of attachment. Boc = CC(C)(C)OC(=O)*; OBn = c1ccc(CO*)cc1
# Columns and labels:
# Assay in all cases: growth of human tumour cells (NCI), 48 h
# NCI-H23 = tested on: NCI-H23
# SK-MEL-5 = tested on: SK-MEL-5
# HOP-62 = tested on: HOP-62
# MDA-N = tested on: MDA-N
# KM12 = tested on: KM12
# OVCAR-5 = tested on: OVCAR-5
# UACC-62 = tested on: UACC-62
# NCI-H226 = tested on: NCI-H226
# NCI/ADR-RES = tested on: NCI/ADR-RES
# A549 = tested on: A549
# NCI-H522 = tested on: NCI-H522
# HOP-92 = tested on: HOP-92
# HT-29 = tested on: HT-29
# RPMI-8226 = tested on: RPMI-8226
# EKVX = tested on: EKVX
# A498 = tested on: A498
# COLO 205 = tested on: COLO 205
# RXF 393 = tested on: RXF 393
# Malme-3M = tested on: Malme-3M
# BT-549 = tested on: BT-549
Compound,GI50 (NCI-H23),GI50 (SK-MEL-5),GI50 (HOP-62),GI50 (MDA-N),GI50 (KM12),GI50 (OVCAR-5),GI50 (UACC-62),GI50 (NCI-H226),GI50 (NCI/ADR-RES),GI50 (A549),GI50 (NCI-H522),GI50 (HOP-92),GI50 (HT-29),GI50 (RPMI-8226),GI50 (EKVX),GI50 (A498),GI50 (COLO 205),GI50 (RXF 393),GI50 (Malme-3M),GI50 (BT-549)
C=C(CCOC)CCC1CCCCC(=C)[C@H]1O (stereo partly specified),> 100 µM (inactive),> 100 µM (inactive),> 100 µM (inactive),> 100 µM (inactive),> 100 µM (inactive),> 100 µM (inactive),> 100 µM (inactive),> 100 µM (inactive),> 100 µM (inactive),> 100 µM (inactive),> 100 µM (inactive),> 100 µM (inactive),> 100 µM (inactive),> 100 µM (inactive),> 100 µM (inactive),> 100 µM (inactive),> 100 µM (inactive),–,–,–
COC(=O)C1OC(O[C@H]2CC[C@]3(C)[C@H]4CC=C5[C@@H]6CC(C)(C)CC[C@]6(C(=O)OC6OCC(O)C(O)C6OC6OC(C)C(OC7OCC(O)C(O)C7O)C(O)C6O)[C@H](O)C[C@@]5(C)[C@]4(C)CC[C@H]3C2(C)C)C(O)C(O)C1O (stereo partly specified),2.14 µM (inactive) and 2.24 µM (inactive),6.61 µM (inactive) and 13.1 µM (inactive),8.85 µM (inactive) and 6.27 µM (inactive),1.87 µM (inactive) and 3.43 µM (inactive),3.48 µM (inactive) and 3.61 µM (inactive),4.93 µM (inactive) and 6.59 µM (inactive),–,7.13 µM (inactive) and 3.94 µM (inactive),4.08 µM (inactive) and 3.24 µM (inactive),3.9 µM (inactive) and 3.47 µM (inactive),1.78 µM (inactive) and 2.63 µM (inactive),1.88 µM (inactive) and 2.09 µM (inactive),2.77 µM (inactive) and 3.73 µM (inactive),4.51 µM (inactive) and 5.06 µM (inactive),3.27 µM (inactive) and 2.82 µM (inactive),1.75 µM (inactive) and 1.86 µM (inactive),1.66 µM (inactive) and 1.83 µM (inactive),11.3 µM (inactive) and 14.9 µM (inactive),–,–
COc1ccc(OC)c(NC(=O)CCC/C(CC(=O)c2ccc(O)c(OC)c2)=N\Nc2ccc([N+](=O)[O-])cc2)c1,48.1 µM (inactive),> 100 µM (inactive),69.5 µM (inactive),–,94.6 µM (inactive),> 100 µM (inactive),48.8 µM (inactive),> 100 µM (inactive),–,> 100 µM (inactive),45.9 µM (inactive),34.3 µM (inactive),> 100 µM (inactive),> 100 µM (inactive),59 µM (inactive),> 100 µM (inactive),> 100 µM (inactive),19 µM (inactive),> 100 µM (inactive),–
O=C1NC2(CCN(CCCC3(c4ccc(F)cc4)OCCO3)CC2)Oc2ccccc21,> 100 µM (inactive),69.5 µM (inactive),> 100 µM (inactive),–,> 100 µM (inactive),> 100 µM (inactive),> 100 µM (inactive),> 100 µM (inactive),97.9 µM (inactive),> 100 µM (inactive),–,23.7 µM (inactive),42.4 µM (inactive),61 µM (inactive),39.4 µM (inactive),21.3 µM (inactive),86.7 µM (inactive),> 100 µM (inactive),> 100 µM (inactive),–
CC1=C(O)C(=O)C2=C(C1=O)[C@@H]([C@@H](C)C/C=C/C(C)(C)O)CC[C@@H]2C,49.2 µM (inactive),35.2 µM (inactive),> 100 µM (inactive),44.8 µM (inactive),31.2 µM (inactive),> 100 µM (inactive),47.4 µM (inactive),74.5 µM (inactive),77.1 µM (inactive),53.5 µM (inactive),21.3 µM (inactive),–,69.3 µM (inactive),23.5 µM (inactive),–,> 100 µM (inactive),> 100 µM (inactive),–,–,–
CC(=O)CC(O)(C(F)(F)Cl)C(F)(F)Cl,> 10 µM (inactive),> 10 µM (inactive),> 10 µM (inactive),> 10 µM (inactive),> 10 µM (inactive),–,> 10 µM (inactive),> 10 µM (inactive),> 10 µM (inactive),> 10 µM (inactive),> 10 µM (inactive),> 10 µM (inactive),> 10 µM (inactive),> 10 µM (inactive),> 10 µM (inactive),> 10 µM (inactive),> 10 µM (inactive),> 10 µM (inactive),> 10 µM (inactive),–
O=C1c2ccccc2-c2nc(-c3cccnc3)cc3c2c1nc1ccccc13,88.3 µM (inactive),–,> 100 µM (inactive),–,> 10 µM (inactive),> 100 µM (inactive),32.7 µM (inactive),> 100 µM (inactive),> 100 µM (inactive),> 100 µM (inactive),> 100 µM (inactive),> 100 µM (inactive),> 100 µM (inactive),45.8 µM (inactive),> 100 µM (inactive),–,> 100 µM (inactive),–,92.9 µM (inactive),> 100 µM (inactive)
CC[C@H](CCCC[C@H]1CC[C@@H]2CC(=O)C[C@H]12)OC,35.5 µM (inactive),31.4 µM (inactive),> 100 µM (inactive),–,> 100 µM (inactive),–,60 µM (inactive),> 100 µM (inactive),47.4 µM (inactive),93.8 µM (inactive),65.8 µM (inactive),27.4 µM (inactive),59 µM (inactive),34 µM (inactive),60.1 µM (inactive),–,> 100 µM (inactive),–,> 100 µM (inactive),36.9 µM (inactive)
CCOc1nc(N)nc(C)c1/N=N/c1ccc(Cl)cc1,> 100 µM (inactive),0.649 µM (active),> 100 µM (inactive),–,> 100 µM (inactive),> 100 µM (inactive),94.4 µM (inactive),20.6 µM (inactive),> 100 µM (inactive),> 100 µM (inactive),69.7 µM (inactive),13.7 µM (inactive),> 100 µM (inactive),25.9 µM (inactive),51.6 µM (inactive),–,> 100 µM (inactive),> 100 µM (inactive),34.4 µM (inactive),59 µM (inactive)
CCN(CC)C(=S)N/N=C(/C)c1cccc(/C(C)=N\NC(=S)N(CC)CC)n1,3.44 µM (inactive),2.13 µM (inactive),1.41 µM (inactive),6.37 µM (inactive),0.26 µM (active),3.31 µM (inactive),2.62 µM (inactive),1.56 µM (inactive),2 µM (inactive),2.86 µM (inactive),3.23 µM (inactive),1.46 µM (inactive),3.52 µM (inactive),2.08 µM (inactive),2.64 µM (inactive),1.89 µM (inactive),1.58 µM (inactive),2.3 µM (inactive),1.45 µM (inactive),–
Nc1ncnc2c1sc(=S)n2-c1ccccc1,> 100 µM (inactive),> 100 µM (inactive),> 100 µM (inactive),–,> 100 µM (inactive),> 100 µM (inactive),> 100 µM (inactive),> 100 µM (inactive),–,> 100 µM (inactive),> 100 µM (inactive),40.8 µM (inactive),> 100 µM (inactive),> 100 µM (inactive),> 100 µM (inactive),82.8 µM (inactive),> 100 µM (inactive),> 100 µM (inactive),> 100 µM (inactive),–
CN1CCN(c2ccc3[nH]c(-c4ccc5[nH]c(-c6ccc(N(C)CCCl)cc6)nc5c4)nc3c2)CC1,0.25 µM (active),0.18 µM (active),0.156 µM (active),0.226 µM (active),0.811 µM (active),2.45 µM (inactive),0.15 µM (active),0.705 µM (active),40.6 µM (inactive),0.286 µM (active),0.0163 µM (active),0.222 µM (active),0.217 µM (active),1.62 µM (inactive),–,2.56 µM (inactive),0.17 µM (active),0.128 µM (active),0.208 µM (active),–
CNc1ccc2c(c1)Cc1ccccc1-2,75.2 µM (inactive),26.8 µM (inactive),57.4 µM (inactive),–,36.1 µM (inactive),98.6 µM (inactive),26.8 µM (inactive),78 µM (inactive),> 100 µM (inactive),22.5 µM (inactive),21.9 µM (inactive),21 µM (inactive),30.3 µM (inactive),38.8 µM (inactive),12.7 µM (inactive),20 µM (inactive),38.7 µM (inactive),34.8 µM (inactive),37.9 µM (inactive),–
CC(C)C(NC(=O)CNC(=O)C1CCCN1C(=O)C(NC(=O)OC(C)(C)C)C(C)C)C(=O)NCC(=O)OCc1ccccc1 (stereo unspecified) (Boc-VPGVG-OBn; configuration not given here),> 100 µM (inactive),24.5 µM (inactive),> 100 µM (inactive),> 100 µM (inactive),> 100 µM (inactive),> 100 µM (inactive),> 100 µM (inactive),> 100 µM (inactive),> 100 µM (inactive),> 100 µM (inactive),> 100 µM (inactive),> 100 µM (inactive),> 100 µM (inactive),> 100 µM (inactive),> 100 µM (inactive),> 100 µM (inactive),> 100 µM (inactive),> 100 µM (inactive),> 100 µM (inactive),–
COC(=O)C1=C(C)NC(C)=C(C(=O)OCCCN2CCC(c3ccccc3)(c3ccccc3)CC2)[C@H]1c1cccc([N+](=O)[O-])c1 [NIGULDIPINE],1.75 µM (inactive),1.75 µM (inactive),4.6 µM (inactive),1.97 µM (inactive),1.77 µM (inactive),2.9 µM (inactive),1.61 µM (inactive),3.25 µM (inactive),1.73 µM (inactive),1.79 µM (inactive),2.49 µM (inactive),1.39 µM (inactive),1.3 µM (inactive),1.61 µM (inactive),2 µM (inactive),4.53 µM (inactive),1.57 µM (inactive),1.86 µM (inactive),2.07 µM (inactive),–
